Assay: Compatibility test of API and auxiliary materials: relevant substances (impurities) by HPLC
Type: physicochemical
Conditions: for Change of relevant substance (in words): 30 days
Experimental: 4. Using HPLC method to detect the content of the sample and relevant substances.
The parameters of the HPLC method for the detection of the content and relevant substances are detailed in Table 2 below.
Placing the samples under experimental conditions of high temperature (60° C.), high humidity (92.5% RH), acceleration (40° C./75% RH) and illumination (visible light 5500 Lux±500 Lux, near ultraviolet light 85 μw/cm2), […] Submitting the samples for relevant indicator testing (test items include appearance, hygroscopic weight gain, content and relevant substances), and comparing the test results with the control samples (raw material).

Which “% Impurities RRT0.46” value (60° C., opened, 30 d) does the source give for `O=C(O)C[S+]([O-])c1cc(NS(=O)(=O)c2ccc(Br)cc2)c2ccccc2c1O` (stereo not shown) [API] here?
Its value is less than 0.05%.

What about the “% Impurities RRT0.89” value (60° C., opened, 30 d) of the same compound?
Its value is 0.07%.

What about the “% Impurities RRT1.16” value (60° C., opened, 30 d) of the same compound?
Its value is 0.87%.

And the “% Impurities RRT1.20” value (60° C., opened, 30 d)?
Its value is 0.06%.

What about the “% Impurities RRT1.29” value (60° C., opened, 30 d) of the same compound?
Its value is 0.18%.

And the “% Impurities RRT1.33” value (60° C., opened, 30 d)?
The value was 0.07%.

And the “% Impurities RRT1.37” value (60° C., opened, 30 d)?
The value was 0.06%.

And the “% Impurities RRT1.41” value (60° C., opened, 30 d)?
The value was less than 0.05%.

And the “% Impurities RRT1.73” value (60° C., opened, 30 d)?
The value was less than 0.05%.

What about the “% Impurities RRT1.74” value (60° C., opened, 30 d) of the same compound?
The value was 0.09%.

What about the “% Impurities Total” value (60° C., opened, 30 d) of the same compound?
Its value is 1.40%.

What about the “% Impurities RRT0.46” value (92.5% RH, opened, 0 d) of the same compound?
The value was less than 0.05%.

What about the “% Impurities RRT0.89” value (92.5% RH, opened, 0 d) of the same compound?
The value was 0.08%.

And the “% Impurities RRT1.10” value (92.5% RH, opened, 0 d)?
The value was less than 0.05%.

And the “% Impurities RRT1.16” value (92.5% RH, opened, 0 d)?
Its value is 0.88%.

And the “% Impurities RRT1.20” value (92.5% RH, opened, 0 d)?
Its value is 0.09%.

What about the “% Impurities RRT1.24” value (92.5% RH, opened, 0 d) of the same compound?
Its value is less than 0.05%.

What about the “% Impurities RRT1.29” value (92.5% RH, opened, 0 d) of the same compound?
Its value is 0.14%.

And the “% Impurities RRT1.33” value (92.5% RH, opened, 0 d)?
Its value is 0.10%.

What about the “% Impurities RRT1.37” value (92.5% RH, opened, 0 d) of the same compound?
Its value is 0.07%.

And the “% Impurities RRT1.41” value (92.5% RH, opened, 0 d)?
Its value is less than 0.05%.

What about the “% Impurities RRT1.43” value (92.5% RH, opened, 0 d) of the same compound?
Its value is less than 0.05%.

What about the “% Impurities RRT1.73” value (92.5% RH, opened, 0 d) of the same compound?
The value was less than 0.05%.

And the “% Impurities RRT1.74” value (92.5% RH, opened, 0 d)?
Its value is 0.05%.

And the “% Impurities Total” value (92.5% RH, opened, 0 d)?
The value was 1.41%.

What about the “% Impurities RRT0.37” value (92.5% RH, opened, 10 d) of the same compound?
The value was less than 0.05%.

What about the “% Impurities RRT0.46” value (92.5% RH, opened, 10 d) of the same compound?
Its value is 0.10%.

And the “% Impurities RRT0.89” value (92.5% RH, opened, 10 d)?
The value was 0.14%.

What about the “% Impurities RRT1.10” value (92.5% RH, opened, 10 d) of the same compound?
The value was less than 0.05%.

What about the “% Impurities RRT1.16” value (92.5% RH, opened, 10 d) of the same compound?
Its value is 1.63%.

And the “% Impurities RRT1.20” value (92.5% RH, opened, 10 d)?
Its value is 0.07%.

What about the “% Impurities RRT1.21” value (92.5% RH, opened, 10 d) of the same compound?
The value was less than 0.05%.

What about the “% Impurities RRT1.24” value (92.5% RH, opened, 10 d) of the same compound?
Its value is less than 0.05%.

What about the “% Impurities RRT1.29” value (92.5% RH, opened, 10 d) of the same compound?
Its value is 0.12%.

And the “% Impurities RRT1.33” value (92.5% RH, opened, 10 d)?
The value was 0.08%.

And the “% Impurities RRT1.37” value (92.5% RH, opened, 10 d)?
The value was 0.07%.

And the “% Impurities RRT1.41” value (92.5% RH, opened, 10 d)?
The value was 0.10%.

And the “% Impurities RRT1.43” value (92.5% RH, opened, 10 d)?
Its value is less than 0.05%.

And the “% Impurities RRT1.54” value (92.5% RH, opened, 10 d)?
Its value is 0.06%.

And the “% Impurities RRT1.64” value (92.5% RH, opened, 10 d)?
The value was 0.13%.

And the “% Impurities RRT1.70” value (92.5% RH, opened, 10 d)?
Its value is less than 0.05%.

And the “% Impurities RRT1.73” value (92.5% RH, opened, 10 d)?
The value was 0.41%.

What about the “% Impurities RRT1.74” value (92.5% RH, opened, 10 d) of the same compound?
The value was 0.08%.

And the “% Impurities Total” value (92.5% RH, opened, 10 d)?
The value was 2.99%.

What about the “% Impurities RRT0.37” value (92.5% RH, opened, 30 d) of the same compound?
The value was less than 0.05%.

And the “% Impurities RRT0.46” value (92.5% RH, opened, 30 d)?
The value was 0.17%.

What about the “% Impurities RRT0.89” value (92.5% RH, opened, 30 d) of the same compound?
Its value is 0.12%.

What about the “% Impurities RRT1.10” value (92.5% RH, opened, 30 d) of the same compound?
Its value is less than 0.05%.

And the “% Impurities RRT1.16” value (92.5% RH, opened, 30 d)?
Its value is 1.65%.

What about the “% Impurities RRT1.20” value (92.5% RH, opened, 30 d) of the same compound?
Its value is 0.06%.

And the “% Impurities RRT1.24” value (92.5% RH, opened, 30 d)?
The value was 0.05%.

And the “% Impurities RRT1.29” value (92.5% RH, opened, 30 d)?
The value was 0.07%.

What about the “% Impurities RRT1.33” value (92.5% RH, opened, 30 d) of the same compound?
Its value is 0.08%.

What about the “% Impurities RRT1.37” value (92.5% RH, opened, 30 d) of the same compound?
The value was 0.08%.

What about the “% Impurities RRT1.41” value (92.5% RH, opened, 30 d) of the same compound?
The value was 0.09%.

And the “% Impurities RRT1.43” value (92.5% RH, opened, 30 d)?
The value was 0.05%.

What about the “% Impurities RRT1.54” value (92.5% RH, opened, 30 d) of the same compound?
Its value is less than 0.05%.

And the “% Impurities RRT1.64” value (92.5% RH, opened, 30 d)?
The value was 0.21%.

And the “% Impurities RRT1.70” value (92.5% RH, opened, 30 d)?
Its value is 0.05%.

And the “% Impurities RRT1.73” value (92.5% RH, opened, 30 d)?
Its value is 0.53%.

What about the “% Impurities RRT1.74” value (92.5% RH, opened, 30 d) of the same compound?
The value was 0.10%.

What about the “% Impurities Total” value (92.5% RH, opened, 30 d) of the same compound?
Its value is 3.31%.

What about the “% Impurities RRT0.46” value (Illumination, opened, 0 d) of the same compound?
The value was less than 0.05%.

What about the “% Impurities RRT0.89” value (Illumination, opened, 0 d) of the same compound?
Its value is 0.08%.

And the “% Impurities RRT1.16” value (Illumination, opened, 0 d)?
Its value is 0.88%.

And the “% Impurities RRT1.20” value (Illumination, opened, 0 d)?
Its value is 0.09%.

What about the “% Impurities RRT1.29” value (Illumination, opened, 0 d) of the same compound?
Its value is 0.14%.

And the “% Impurities RRT1.33” value (Illumination, opened, 0 d)?
Its value is 0.10%.

What about the “% Impurities RRT1.37” value (Illumination, opened, 0 d) of the same compound?
Its value is 0.07%.

And the “% Impurities RRT1.41” value (Illumination, opened, 0 d)?
The value was less than 0.05%.

What about the “% Impurities RRT1.73” value (Illumination, opened, 0 d) of the same compound?
The value was less than 0.05%.

And the “% Impurities RRT1.74” value (Illumination, opened, 0 d)?
The value was 0.05%.

And the “% Impurities Total” value (Illumination, opened, 0 d)?
The value was 1.41%.

And the “% Impurities RRT0.46” value (Illumination, opened, 10 d)?
Its value is 0.06%.

And the “% Impurities RRT0.89” value (Illumination, opened, 10 d)?
Its value is 0.17%.

And the “% Impurities RRT1.16” value (Illumination, opened, 10 d)?
The value was 0.91%.

And the “% Impurities RRT1.20” value (Illumination, opened, 10 d)?
The value was 0.08%.

What about the “% Impurities RRT1.29” value (Illumination, opened, 10 d) of the same compound?
Its value is 0.20%.

And the “% Impurities RRT1.33” value (Illumination, opened, 10 d)?
Its value is 0.09%.

What about the “% Impurities RRT1.37” value (Illumination, opened, 10 d) of the same compound?
The value was 0.07%.

And the “% Impurities RRT1.41” value (Illumination, opened, 10 d)?
The value was less than 0.05%.

What about the “% Impurities RRT1.73” value (Illumination, opened, 10 d) of the same compound?
Its value is 0.05%.

And the “% Impurities RRT1.74” value (Illumination, opened, 10 d)?
The value was 0.07%.

And the “% Impurities Total” value (Illumination, opened, 10 d)?
The value was 1.70%.

And the “Change of relevant substance (in words)” value (acceleration 40° C./75% RH, opened)?
The value was “increased significantly at RRT0.46, RRT1.16, RRT1.63 and RRT1.73, and increased slightly at RRT1.41 and RRT1.43”.

And the “Stability of API (summary)” value (compatibility test of raw and auxiliary materials)?
The value was “unstable under the conditions of high humidity, illumination and acceleration”.

And the “Change of relevant substance (in words)” value (high humidity 92.5% RH, opened)?
Its value is “increased significantly at RRT0.46, RRT1.16, RRT1.64 and RRT1.73, and increased slightly at RRT1.41 and RRT1.74”.

What about the “Change of relevant substance (in words)” value (illumination, opened) of the same compound?
The value was “increased slightly at RRT 0.89 and RRT 1.29”.
